In patent US20210110884A1 (priority 2019, published 2021):

T1: E. coli DHFR (Escherichia coli, UniProt P0ABQ4)
T1 sequence (P0ABQ4 1-159): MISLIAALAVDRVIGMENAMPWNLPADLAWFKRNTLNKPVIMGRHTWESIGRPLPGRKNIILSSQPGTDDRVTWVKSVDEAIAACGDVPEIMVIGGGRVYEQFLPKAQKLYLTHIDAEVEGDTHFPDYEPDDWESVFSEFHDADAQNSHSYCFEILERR

B1: BChEG117: butyrylcholinesterase as printed without H; apparently the enzyme lacking the G117H mutation (protein, UniProt P06276 29-602, looked up)
Cholinesterase: EDDIIIATKNGKVRGMNLTVFGGTVTAFLGIPYAQPPLGRLRFKKPQSLTKWSDIWNATKYANSCCQNIDQSFPGFHGSEMWNPNTDLSEDCLYLNVWIPAPKPKNATVLIWIYGGGFQTGTSSLHVYDGKFLARVERVIVVSMNYRVGALGFLALPGNPEAPGNMGLFDQQLALQWVQKNIAAFGGNPKSVTLFGESAGAASVSLHLLSPGSHSLFTRAILQSGSFNAPWAVTSLYEARNRTLNLAKLTGCSRENETEIIKCLRNKDPQEILLNEAFVVPYGTPLSVNFGPTVDGDFLTDMPDILLELGQFKKTQILVGVNKDEGTAFLVYGAPGFSKDNNSIITRKEFQEGLKIFFPGVSEFGKESILFHYTDWVDDQRPENYREALGDVVGDYNFICPALEFTKKFSEWGNNAFFYYFEHRSSKLPWPEWMGVMHGYEIEFVFGLPLERRDNYTKAEEILSRSIVKRWANFAKYGNPNETQNNSTSWPVFKSTEQKYLTLNTESTRIMTKLRAQQCRFWTSFFPKVLEMTGNIDEAEWEWKAGFHRWNNYMMDWKNQFNDYTSKKESCVGL

Key:
E. coli DHFR = target: T1, E. coli DHFR; type: biochemical
[1] = type: biochemical

Molecule | decrease of hydride transfer by E. coli DHFR (E. coli DHFR) [fold] | pH independent rate for hydride transfer (E. coli DHFR) [s^−1] | inhibition by selected OP concentrations [1] [%]
CC(C)O [isopropanol] | 2.2 | 530±10 | 
B1 |  |  | > 99
